Results from ChEMBL document CHEMBL1129941, “AMPA receptor agonists: synthesis, protolytic properties, and pharmacology of 3-isothiazolol bioisosteres of glutamic acid” (J Med Chem, 1997).

Key:
[1] = species on record: Rattus norvegicus; experiment: tissue or blood
Description: Effective concentration evaluated in electrophysiological rat cortical slice model

[2] = molecular target: Glutamate receptor ionotropic, AMPA (Rattus norvegicus, UniProt P19490+P19491+P19492+P19493)
Description: In vitro binding affinity for Ionotropic glutamate receptor AMPA site was determined using [3H]AMPA as radioligand in rat cortex

[3] = test system: Mus musculus; experiment: In vivo convulsant potency after subcutaneous administration in mice; format: functional; details: sc

| SMILES | EC50 [1] | IC50 [2] | ED50 [3] |
| --- | --- | --- | --- |
| NC(Cc1snc(O)c1Br)C(=O)O (configuration not stated) | 500 µM | 17 µM |  |
| Cc1snc(O)c1CC(N)C(=O)O (configuration not stated) | 15 µM | 1.8 µM | 130 µmol/kg |
| CC(C)(C)c1onc(O)c1CC(N)C(=O)O (configuration not stated) | 34 µM |  |  |
| CC(C)(C)c1snc(O)c1CC(N)C(=O)O (configuration not stated) | 14 µM | 0.63 µM |  |

Now from value to molecule, other results behind:

| EC50 [1] | IC50 [2] | SMILES | ED50 [3] |
| --- | --- | --- | --- |
| 370 µM | 5.8 µM | NC(Cc1cc(O)ns1)C(=O)O (configuration not stated) |  |
| 370 µM | 1.5 µM | NC(Cc1cc(O)no1)C(=O)O (configuration not stated) |  |
